Measured values from PMC11550998, “Novel 5-HT7 receptor antagonists modulate intestinal immune responses and reduce severity of colitis” (American Journal of Physiology - Gastrointestinal and Liver …, 2024).
Each block holds one molecule with its values, some of them ahead of it.

Key:
[1] = Mouse in vivo pharmacokinetic studies; design: species or system C57BL/6 male mice
Protocol: Adult C57BL/6 male mice (2–4 mo old, body weight ranging from 20 to 25 g, Charles River Laboratories) were maintained under controlled temperature (23 ± 1°C) and lighting (lights on 6:00 AM–6:00 PM) with food and water provided ad libitum. Pharmacokinetic studies were performed either via intravenous bolus infusion or through oral gavage. Mice were administered each compound intravenously by tail vein injection (1 mg/kg) or orally through gavage (5 mg/kg). Serial blood samples were collected at 5, 15, and 30 min and 1, 2, 4, 8, and 24 h after intravenous administration, and at 15, 30 min, and 1, 2, 4, 8, and 24 h after oral gavage administration. All blood samples were centrifuged at 1,500 g for 5 min. Pharmacokinetic study procedures were approved by Temple University’s Institutional Animal Care and Usage Committee and were in accordance with National Institutes of Health (NIH) guidelines. For all in vivo efficacy studies, experiments were approved by the animal ethics committee of McMaster University and conducted under Canadian guidelines for animal research.
Plasma concentrations were determined using an LC-MS/MS method. Briefly, 100-µL acetonitrile with an internal standard solution (Diltiazem, 0.1 μg/mL) was added to 50-µL plasma or tissue homogenate. After being vortexed for 1 min, the mixture was centrifuged at 3,000 g for 5 min. LC-MS/MS analysis was carried out using a high-performance liquid chromatography system consisting of an Agilent 1100 system interfaced to an API4000 SCIEX triple-quadrupole tandem mass spectrometer (Applied Biosystems/MDS Sciex, Foster City, CA). MC-170073, MC-230078, MC-230079, and the internal standard were separated by using a Phenomenex (Torrance, CA) C18 column (2.0 × 50 mm). The mobile phase consisted of solvent A (0.1% formic acid in water) and solvent B (0.1% formic acid in acetonitrile). A linear gradient of solvent B from 5 to 95% was used. The detection and quantification of analytes were performed with the m/z transition 347/191 for MC-170073, MC-230078, and MC-230079, and m/z 415/178 for diltiazem.

[2] = test system: colitis induced by DSS and TNBS; conditions: 5-HT4 receptor agonist; cited from earlier work
[3] = test system: DSS-induced colitis; design: method as in PMID 23554310; conditions: acute DSS-induced colitis, vs controls; cited from earlier work
[4] = test system: 2,4,6-trinitrobenzenesulfonic acid (TNBS)-induced colitis; design: method as in PMID 23554310, PMID 27047383; conditions: cited from earlier work
[5] = test system: DSS exposure at 4% wt/vol; design: method as in PMID 25072499; conditions: DSS 4% wt/vol; untreated animals 33%; cited from earlier work
[6] = test system: naive CD4+ T cells expressing 5-HT7 receptors; design: method as in PMID 17158224; conditions: ex vivo; cited from earlier work
[7] = male, C57BL/6, plasma, IV, 1 mg/kg
[8] = male, C57BL/6, plasma, oral gavage, 5 mg/kg

bioavailability ([1]; male, C57BL/6, mouse, plasma, oral, 5 mg/kg, 5 mg/kg oral vs 1 mg/kg IV, read-out: %F (oral bioavailability)): 10.8% | AUC [1, 7]: 97 ng·h/mL | Cmax [1, 7]: 148 ng/mL | Tmax [1, 7]: 10 min | clearance [1, 7]: 4.2 mL/min | half-life [1, 7]: 20.1 min | AUC [1, 8]: 52.5 ng·h/mL | Cmax [1, 8]: 57 ng/mL | Tmax [1, 8]: 30 min | half-life [1, 8]: 34.9 min | CL ([1]; oral gavage, 5 mg/kg): 2.07 L/h
SMILES: CCC1(CC)C[C@H](CCN2CCN(c3ccc(O)cc3)CC2)OC1=O [MC-230079]

SMILES: [H]/N=C(/NCCCCC)N/N=C/c1c[nH]c2ccc(OC)cc12 [tegaserod]
effect on development of colitis [2]: protective actions

SMILES: CC1CCN(CC[C@H]2CCCN2S(=O)(=O)c2cccc(O)c2)CC1 [SB-269970, (R)-3-(2-(2-(4-methylpiperidin-1-yl)-ethyl)pyrrolidine-1-sulfonyl)phenol]
severity of colitis and production of proinflammatory cytokines [3]: significantly reduced | effect on TNBS-induced colitis [4]: only a minor impact | mortality rate [5]: > 60% | rapid T cell responses upon 5-HT exposure [6]: abrogated
